In test [1] the target is 348 GPCRs (Homo sapiens, UniProt P30872). As to the kind of experiment: TGFα-shedding assay-based GPCR screening with chimeric Gα subunit proteins. The class given is cell-based. The conditions noted are these: 10µM, Favipiravir 100μM.
The target in test [2] is T1, 348 GPCRs (Homo sapiens, UniProt Q8TDU9).
T1 construct: expressed in transfected cells; host or cells: HEK293A
Described as above. The class given is cell-based. The conditions noted are these: RXFP4 (relaxin/insulin-like family peptide receptor 4); 10µM, Favipiravir 100μM.

Test [3] deals with T2, 348 GPCRs (Homo sapiens, UniProt Q9BZJ7).
T2 construct: expressed in transfected cells; host or cells: HEK293A
The description is as above. The class given is cell-based.

Test [4] has as its target T3, 5-hydroxytryptamine receptor 1F (Homo sapiens, UniProt P30939).
T3 construct: gene HTR1F
T3 sequence (P30939 1-366): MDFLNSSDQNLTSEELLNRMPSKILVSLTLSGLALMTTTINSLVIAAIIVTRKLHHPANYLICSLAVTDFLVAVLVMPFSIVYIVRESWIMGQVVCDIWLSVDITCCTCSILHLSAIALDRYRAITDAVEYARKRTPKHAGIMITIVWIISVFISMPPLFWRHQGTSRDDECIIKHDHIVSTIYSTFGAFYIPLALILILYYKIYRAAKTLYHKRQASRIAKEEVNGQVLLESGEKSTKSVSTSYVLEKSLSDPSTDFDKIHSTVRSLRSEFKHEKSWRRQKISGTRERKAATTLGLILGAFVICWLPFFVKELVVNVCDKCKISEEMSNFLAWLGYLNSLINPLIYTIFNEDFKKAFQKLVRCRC
As to the kind of experiment: cell-based. Details: species or system HEK293A; AP-TGFα shedding assay, transfected GPCR plus chimeric Gα mixture, AP release as % of TPA response. The conditions noted are these: HEK293-A.

The target of test [5] is T4, G protein-coupled receptor 17 short (Homo sapiens, UniProt Q13304).
T4 construct: gene GPR17; short isoform
As to the kind of experiment: cell-based. More on the design: species or system HEK293A; AP-TGFα shedding assay, transfected GPCR plus chimeric Gα mixture, AP release as % of TPA response. The conditions noted are these: HEK293-A.

In test [6] the target is T5, G protein-coupled receptor 183 (Epstein-Barr Virus Induced Gene 2) (Homo sapiens, UniProt P32249).
T5 construct: gene GPR183
As to the kind of experiment: cell-based. More on the design: species or system HEK293A; AP-TGFα shedding assay, transfected GPCR plus chimeric Gα mixture, AP release as % of TPA response. The conditions noted are these: HEK293-A.

The target in test [7] is T6, chemokine (C-X3-C motif) receptor 1 (Homo sapiens, UniProt P49238).
T6 construct: gene CX3CR1
T6 sequence (P49238 1-355): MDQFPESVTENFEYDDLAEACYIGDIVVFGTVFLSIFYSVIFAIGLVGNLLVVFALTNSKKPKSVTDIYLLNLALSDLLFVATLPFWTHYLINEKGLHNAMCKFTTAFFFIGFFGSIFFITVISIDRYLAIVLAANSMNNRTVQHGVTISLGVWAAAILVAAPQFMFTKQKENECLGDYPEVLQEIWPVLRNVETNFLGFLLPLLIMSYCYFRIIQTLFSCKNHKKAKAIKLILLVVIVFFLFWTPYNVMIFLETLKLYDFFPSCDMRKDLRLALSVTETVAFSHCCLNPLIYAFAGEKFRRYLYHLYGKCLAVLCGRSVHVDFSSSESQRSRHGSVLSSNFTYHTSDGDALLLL
Put plainly: cell-based. More on the design: species or system HEK293A; AP-TGFα shedding assay, transfected GPCR plus chimeric Gα mixture, AP release as % of TPA response. The conditions noted are these: HEK293-A.

Test [8] concerns the target T7, purinergic receptor P2Y, G-protein coupled, 13 short (Homo sapiens, UniProt Q9BPV8).
T7 construct: gene P2RY13; short
T7 sequence (Q9BPV8 1-354): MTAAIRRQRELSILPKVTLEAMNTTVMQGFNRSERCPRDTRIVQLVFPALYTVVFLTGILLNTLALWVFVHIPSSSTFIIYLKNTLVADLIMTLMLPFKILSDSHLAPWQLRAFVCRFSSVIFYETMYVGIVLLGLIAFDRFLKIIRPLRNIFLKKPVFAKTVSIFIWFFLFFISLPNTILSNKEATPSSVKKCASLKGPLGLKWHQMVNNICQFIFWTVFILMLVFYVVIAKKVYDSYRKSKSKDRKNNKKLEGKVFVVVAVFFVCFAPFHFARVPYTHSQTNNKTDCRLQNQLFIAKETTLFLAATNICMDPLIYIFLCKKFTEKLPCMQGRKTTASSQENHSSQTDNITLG
Put plainly: cell-based. Details: species or system HEK293A; AP-TGFα shedding assay, transfected GPCR plus chimeric Gα mixture, AP release as % of TPA response. The conditions noted are these: HEK293-A.

In test [9] the target is T8, relaxin/insulin-like family peptide receptor 1 (Homo sapiens, UniProt Q9HBX9).
T8 construct: gene RXFP1
T8 sequence (Q9HBX9 1-757): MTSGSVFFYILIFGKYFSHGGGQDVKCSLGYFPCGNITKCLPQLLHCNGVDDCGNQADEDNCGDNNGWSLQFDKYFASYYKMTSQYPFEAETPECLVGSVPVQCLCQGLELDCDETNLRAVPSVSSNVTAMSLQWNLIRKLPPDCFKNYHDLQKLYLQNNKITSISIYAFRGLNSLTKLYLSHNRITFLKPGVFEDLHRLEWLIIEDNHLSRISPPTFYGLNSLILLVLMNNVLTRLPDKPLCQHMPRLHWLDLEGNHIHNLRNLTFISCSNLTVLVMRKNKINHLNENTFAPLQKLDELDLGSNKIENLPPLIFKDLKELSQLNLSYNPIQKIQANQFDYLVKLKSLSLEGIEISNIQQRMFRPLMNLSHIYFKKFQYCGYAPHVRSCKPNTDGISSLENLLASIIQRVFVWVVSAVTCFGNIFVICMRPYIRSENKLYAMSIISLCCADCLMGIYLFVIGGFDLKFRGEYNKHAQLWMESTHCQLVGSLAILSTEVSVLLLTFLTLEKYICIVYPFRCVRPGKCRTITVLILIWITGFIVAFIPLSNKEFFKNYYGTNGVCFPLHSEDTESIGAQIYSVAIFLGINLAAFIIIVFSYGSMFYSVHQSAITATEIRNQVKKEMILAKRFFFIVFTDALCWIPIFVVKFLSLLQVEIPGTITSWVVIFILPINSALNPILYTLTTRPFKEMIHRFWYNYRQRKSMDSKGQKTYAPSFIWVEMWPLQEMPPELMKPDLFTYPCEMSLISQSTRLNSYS
Put plainly: cell-based. Details: species or system HEK293A; AP-TGFα shedding assay, transfected GPCR plus chimeric Gα mixture, AP release as % of TPA response. The conditions noted are these: HEK293-A.

Setting [10] is: SSTR1 (somatostatin receptor 1), read-out: % GPCR activation compared to TPA.
[11] abbreviates: GPCR GPR62 (G protein-coupled receptor 62), read-out: % GPCR activation compared to TPA.
Setting [12] is: read-out: % GPCR activation of 10µM Molnupiravir compared to TPA.
The mark [13] stands for this setting: read-out: % GPCR activation compared to TPA, SSTR1 (somatostatin receptor 1).
Where [14] appears, read: read-out: % GPCR activation compared to TPA, GPCR GPR62 (G protein-coupled receptor 62).
Where [15] appears, read: read-out: % GPCR activation of 10μM Sofosbuvir compared to TPA.
Where [16] appears, read: read-out: % GPCR activation of 10μM GS441524 compared to TPA.
Where [17] appears, read: read-out: % GPCR activation of 100μM Favipiravir compared to TPA.
The mark [18] stands for this setting: read-out: % GPCR activation of 10µM Remdesivir compared to TPA.

The structures appear in SMILES notation. Like-named read-outs stand apart in the source and are kept apart here.

T4 sequence (Q13304 whole entry, canonical isoform): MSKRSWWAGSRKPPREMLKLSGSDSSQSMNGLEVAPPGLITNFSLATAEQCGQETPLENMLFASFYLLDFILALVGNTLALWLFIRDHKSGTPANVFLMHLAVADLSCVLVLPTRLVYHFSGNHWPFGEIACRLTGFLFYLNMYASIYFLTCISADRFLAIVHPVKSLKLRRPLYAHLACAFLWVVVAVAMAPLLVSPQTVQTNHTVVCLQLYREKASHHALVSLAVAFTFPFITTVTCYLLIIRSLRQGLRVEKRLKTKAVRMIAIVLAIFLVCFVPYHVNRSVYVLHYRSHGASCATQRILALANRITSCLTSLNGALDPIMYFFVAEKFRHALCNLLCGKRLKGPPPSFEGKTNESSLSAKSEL
T1 sequence (Q8TDU9 whole entry): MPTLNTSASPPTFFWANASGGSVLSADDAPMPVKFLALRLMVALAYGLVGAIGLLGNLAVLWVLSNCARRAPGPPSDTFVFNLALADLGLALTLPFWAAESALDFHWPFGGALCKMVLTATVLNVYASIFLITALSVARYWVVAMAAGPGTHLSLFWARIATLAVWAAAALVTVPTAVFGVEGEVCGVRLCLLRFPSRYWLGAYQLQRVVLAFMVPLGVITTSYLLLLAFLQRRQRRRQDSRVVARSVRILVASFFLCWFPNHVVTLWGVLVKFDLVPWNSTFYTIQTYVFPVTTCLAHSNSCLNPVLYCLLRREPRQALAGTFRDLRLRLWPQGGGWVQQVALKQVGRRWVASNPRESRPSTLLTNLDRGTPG
T2 sequence (Q9BZJ7 whole entry): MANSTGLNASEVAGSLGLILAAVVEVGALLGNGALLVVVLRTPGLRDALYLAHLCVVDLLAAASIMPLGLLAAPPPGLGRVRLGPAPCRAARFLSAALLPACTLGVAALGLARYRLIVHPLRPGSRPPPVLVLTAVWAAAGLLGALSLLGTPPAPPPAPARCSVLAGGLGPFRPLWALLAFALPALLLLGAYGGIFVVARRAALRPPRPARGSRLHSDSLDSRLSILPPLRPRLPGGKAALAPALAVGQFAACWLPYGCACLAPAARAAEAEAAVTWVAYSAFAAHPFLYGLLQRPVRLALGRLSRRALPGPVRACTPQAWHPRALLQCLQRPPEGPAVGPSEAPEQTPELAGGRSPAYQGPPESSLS
T5 sequence (P32249 whole entry): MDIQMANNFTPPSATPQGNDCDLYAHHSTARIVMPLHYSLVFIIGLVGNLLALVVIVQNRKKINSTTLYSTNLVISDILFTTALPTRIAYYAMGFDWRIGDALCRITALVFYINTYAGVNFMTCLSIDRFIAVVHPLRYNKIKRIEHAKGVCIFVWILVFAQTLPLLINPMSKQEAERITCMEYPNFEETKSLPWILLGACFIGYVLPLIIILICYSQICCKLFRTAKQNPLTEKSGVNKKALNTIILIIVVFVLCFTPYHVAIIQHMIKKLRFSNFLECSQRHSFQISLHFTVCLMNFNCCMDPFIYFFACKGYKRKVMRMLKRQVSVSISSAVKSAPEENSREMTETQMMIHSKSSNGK
348 GPCRs (Homo sapiens, UniProt P30872), sequence (P30872 whole entry): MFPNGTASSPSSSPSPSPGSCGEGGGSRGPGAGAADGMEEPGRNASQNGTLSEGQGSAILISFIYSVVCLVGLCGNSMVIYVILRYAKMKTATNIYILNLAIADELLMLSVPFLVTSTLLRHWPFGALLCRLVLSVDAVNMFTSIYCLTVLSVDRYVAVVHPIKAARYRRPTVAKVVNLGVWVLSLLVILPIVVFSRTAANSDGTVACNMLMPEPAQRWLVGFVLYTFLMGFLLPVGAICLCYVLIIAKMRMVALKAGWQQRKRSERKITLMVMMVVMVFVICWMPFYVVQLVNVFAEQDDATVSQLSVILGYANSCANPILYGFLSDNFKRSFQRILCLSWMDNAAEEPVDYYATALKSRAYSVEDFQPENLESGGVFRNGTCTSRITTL

As for `CC(C)C(=O)OC[C@H]1O[C@@H](n2ccc(NO)nc2=O)[C@H](O)[C@@H]1O` [molnupiravir], the activation at 10 µM on 348 GPCRs [1] (setting [10]) was 0.451%; on 348 GPCRs [3] (setting [11]), -0.851%. Further, the “% GPCR activation compared to TPA” value on 348 GPCRs [2] was -0.4598%. The activity at 10 µM in [4] (setting [12]) is 0.719%; in [5] (setting [12]), 0.174%; in [6] (setting [12]), -0.842%; in test [7] (setting [12]), -0.579%; in test [8] (setting [12]), -3.48%; in test [9] (setting [12]), -0.957%.
On to `CC(C)OC(=O)[C@H](C)N[P@](=O)(OC[C@H]1O[C@@H](n2ccc(=O)[nH]c2=O)[C@](C)(F)[C@@H]1O)Oc1ccccc1` [sofosbuvir], for which the activation at 10 µM at 348 GPCRs [1] (setting [13]) was -0.638%; at 348 GPCRs [3] (setting [14]) it was 1.52%. Also, the “% GPCR activation compared to TPA” value on 348 GPCRs [2] is on record as -1.565%. The activity at 10 µM in test [4] (setting [15]) was -0.816%; in test [5] (setting [15]), 1.81%; in test [6] (setting [15]) it was -0.758%; in test [7] (setting [15]), 0.247%; in test [8] (setting [15]) it was -2.68%; in [9] (setting [15]), 0.456%.
In the case of `N#C[C@@]1(c2ccc3c(N)ncnn23)O[C@H](CO)[C@@H](O)[C@H]1O` [GS441524], the results for the activation at 10 µM on 348 GPCRs [1] (setting [10]) and on 348 GPCRs [3] (setting [11]) were -0.554% and -0.286%, respectively. Besides, at 348 GPCRs [2], the “% GPCR activation compared to TPA” value is -0.3375%. For the same compound, the activity at 10 µM in test [4] (setting [16]) was 0.356%; in test [5] (setting [16]), 2.36%; in [6] (setting [16]) it was -1.47%; in test [7] (setting [16]), -0.521%; in test [8] (setting [16]), 0.947%; in test [9] (setting [16]), -1.09%.
For the compound `NC(=O)c1nc(F)cnc1O` [favipiravir, 6-fluoro-3-hydroxy-2-pyrazinecarboxamide], at 348 GPCRs [1] (setting [10]), the activation at 10 µM worked out at 0.537%. For the same compound, on 348 GPCRs [2], the “% GPCR activation compared to TPA” value amounted to 1.69%. Besides, the activation at 100 µM at 348 GPCRs [3] (GPCR GPR62 (G protein-coupled receptor 62), 100μM, read-out: % GPCR activation compared to TPA) was -1.63%. The activity at 100 µM in test [4] (setting [17]) was 1.63%; in test [5] (setting [17]), -0.501%; in test [6] (setting [17]), -1.16%; in test [7] (setting [17]) it was 0.0634%; in test [8] (setting [17]), 1.7%; in [9] (setting [17]), 0.274%.
In the case of `CCC(CC)COC(=O)[C@H](C)N[P@](=O)(OC[C@H]1O[C@@](C#N)(c2ccc3c(N)ncnn23)[C@H](O)[C@@H]1O)Oc1ccccc1` [remdesivir], the activation at 10 µM on 348 GPCRs [1] (setting [13]) was found to be 2.79%; on 348 GPCRs [3] (setting [14]), 0.871%. Further, the “% GPCR activation compared to TPA” value at 348 GPCRs [2] came to 0.9967%. The activity at 10 µM in test [4] (setting [18]) was -2.15%; in test [5] (setting [18]) it was 2.96%; in test [6] (setting [18]) it was 0.482%; in test [7] (setting [18]) it was 2.08%; in [8] (setting [18]), 2.55%; in [9] (setting [18]) it was -0.564%.

Values taken from publication PMC10175918 (Communications Biology, 2023).
